# Data published in patent publication US8691775B2, “Use of drugs that activate P2Y receptors to enhance synaptogenesis” (Back Bay Scientific, LLC, priority 2010, dated 2014).
# What was measured:
# [1] = test system: PSD-95 protein in PC12 cells; assay: Level of PSD-95 in PC12 cells incubated with test compound; format: cell-based; settings: incubation 2 or 4 days
# From the text: Postsynaptic protein PSD-95 is a member of the membrane-associated guanylate kinase (MAGUK) family. The protein is almost exclusively located in the postsynaptic density of neurons and is involved in anchoring synaptic proteins. The inventor hypothesized that active agents that increase the level of the PSD-95 protein in cultured cells may be screened for their ability to activate P2Y receptors in animal models.
# PC12 cells, a cell line ultimately derived from neural cells, are maintained in Minimal Essential Medium (MEM; Invitrogen, Carlsbad, Calif.) supplemented with 10% fetal bovine serum (FBS) at 37° C. Experimental incubations are for 2 or 4 days in medium with or without test compounds.
# The activity of each test compound is assessed by determining the effect of each test compound on the level of PSD-95 in the cells.
# brain dendritic spines = assay: Brain dendritic spines in laboratory animals injected intraperitoneally with test compound; format: in vivo; settings: intraperitoneal injection after 6 weeks of diet
# From the text: The laboratory animals are fed a food composition with or without a synthetic diet enriched with uridine, DHA and choline for 6 weeks, and are then intraperitoneally injected with a composition comprising the test compound.
# [2] = rats; cited from earlier work
Compound,level of the PSD-95 protein in tissue culture [1],level of brain dendritic spines in laboratory animals (brain dendritic spines),uridine entering the liver via the portal vein metabolized in a single pass [2]
CCCCCCSc1nc(N)c2ncn([C@@H]3O[C@H](COP(=O)(O)O)[C@@H](O)[C@H]3O)c2n1 [2-(hexylthio) (HT)-AMP],effective,effective,–
CSc1nc(N)c2ncn([C@@H]3O[C@H](COP(=O)(O)OP(=O)(O)OP(=O)(O)O)[C@@H](O)[C@H]3O)c2n1 [2-MeSATP],effective,effective,–
CSc1nc(N)c2ncn([C@@H]3O[C@H](COP(=O)([O-])OP(=O)([O-])[O-])[C@@H](O)[C@H]3O)c2n1.[Na+].[Na+].[Na+] [2-Methylthio-ADP trisodium salt],effective,effective,–
O=c1ccn([C@@H]2O[C@H](COP(=O)([O-])OP(=O)([O-])OP(=O)([O-])[O-])[C@@H](O)[C@H]2O)c(=S)[nH]1.[Na+].[Na+].[Na+].[Na+] [2-ThioUTP tetrasodium salt],effective,effective,–
O=c1ccn([C@@H]2O[C@H](COP(=O)(O)OP(=O)(O)OP(=O)(O)O)[C@@H](O)[C@H]2O)c(=S)[nH]1 [2-thio-UTP],effective,effective,–
N[C@@H]1[C@H](O)[C@@H](COP(=O)(O)OP(=O)(O)OP(=O)(O)O)O[C@H]1n1ccc(=O)[nH]c1=O [2′-deoxy-2′-amino-UTP],effective,effective,–
Nc1ncnc2c1ncn2[C@@H]1O[C@H](COP(=O)(O)OP(=O)(O)O)[C@@H](O)[C@H]1O [ADP],effective,effective,–
Nc1ncnc2c1ncn2[C@@H]1O[C@H](COP(=O)(O)OP(=O)([O-])OP(=O)([O-])O)[C@@H](O)[C@H]1O.[Na+].[Na+] [ATP disodium salt],effective,–,–
Nc1ncnc2c1ncn2[C@@H]1O[C@H](COP(=O)(O)OP(=O)(O)OP(=O)(O)OP(=O)(O)OC[C@H]2O[C@@H](n3cnc4c(N)ncnc43)[C@H](O)[C@@H]2O)[C@@H](O)[C@H]1O [Ap4A],effective,effective,–
Nc1ncnc2c1ncn2[C@@H]1O[C@H](COP(=O)(O)OP(=O)(O)OP(=O)(O)OP(=O)(O)OC[C@H]2O[C@@H](n3ccc(=O)[nH]c3=O)[C@H](O)[C@@H]2O)[C@@H](O)[C@H]1O [Ap4U],effective,effective,–
"Nc1ccn([C@@H]2O[C@H](COP(=O)(O)OP(=O)(O)OP(=O)(O)O)[C@@H](O)[C@H]2O)c(=O)n1 [CTP, cytidine-triphosphate]",effective,effective,–
Nc1nc2c(ncn2[C@@H]2O[C@H](COP(=O)(O)OP(=O)(O)OP(=O)(O)O)[C@@H](O)[C@H]2O)c(=O)[nH]1 [GTP],effective,effective,–
O=c1ccn([C@@H]2O[C@H](COP(=O)(O)OP(=O)(O)OP(=O)(O)OP(=O)(O)OC[C@H]3O[C@@H](n4ccc(=O)[nH]c4=O)[C@H](O)[C@@H]3O)[C@@H](O)[C@H]2O)c(=O)[nH]1 [INS365],effective,effective,–
O=c1[nH]cnc2c1ncn2[C@@H]1O[C@H](COP(=O)(O)OP(=O)(O)OP(=O)(O)O)[C@@H](O)[C@H]1O [ITP],effective,effective,–
CSc1nc(N)c2ncn([C@H]3[C@H](O)[C@H](O)[C@]4(COP(=O)(O)OP(=O)(O)O)C[C@H]34)c2n1 [MRS 2365],effective,effective,–
O=c1ccn([C@@H]2O[C@H](COP(=O)([O-])OP(=O)([O-])O[C@H]3O[C@H](CO)[C@@H](O)[C@H](O)[C@H]3O)[C@@H](O)[C@H]2O)c(=S)[nH]1.[Na+].[Na+] [MRS 2690],effective,effective,–
N[C@@H]1[C@H](O)[C@@H](COP(=O)(O)OP(=O)(O)OP(=O)(O)O)O[C@H]1n1ccc(=O)[nH]c1=S [MRS 2698],effective,effective,–
O=C(Cn1c(=O)ccn(C2OC(COP(=O)(O)OP(=O)(O)O)C(O)C2O)c1=O)c1ccccc1 (stereo not shown) [PSB 0474],effective,effective,–
"O=c1ccn([C@@H]2O[C@H](COP(=O)(O)OP(=O)(O)O)[C@@H](O)[C@H]2O)c(=O)[nH]1 [UDP, uridine 5′-diphosphate]",effective,effective,–
"O=c1ccn([C@@H]2O[C@H](COP(=O)(O)OP(O)(O)=S)[C@@H](O)[C@H]2O)c(=O)[nH]1 [UDPβS, Uridine β-thiodiphosphate]",effective,effective,–
"O=c1ccn([C@@H]2O[C@H](COP(=O)(O)OP(=O)(O)OP(=O)(O)O)[C@@H](O)[C@H]2O)c(=O)[nH]1 [UTP, uridine 5′-triphosphate]",effective,effective,–
O=c1ccn(C2OC(COP(=O)([O-])OP(=O)([O-])OP(=O)([O-])S)C(O)C2O)c(=O)[nH]1.[Na+].[Na+].[Na+] (stereo not shown) [UTPγS trisodium salt],effective,effective,–
"O=c1ccn([C@@H]2O[C@H](COP(=O)(O)OP(=O)(O)OP(O)(O)=S)[C@@H](O)[C@H]2O)c(=O)[nH]1 [UTPγS, uridine γ-thiophosphate]",effective,effective,–
Nc1ccn([C@H]2C[C@H](O)[C@@H](COP(=O)(O)OP(=O)(O)OP(=O)(O)OP(=O)(O)OC[C@H]3O[C@@H](n4ccc(=O)[nH]c4=O)[C@H](O)[C@@H]3O)O2)c(=O)n1 [denufosol],effective,effective,–
O=c1ccn([C@@H]2O[C@H](CO)[C@@H](O)[C@H]2O)c(=O)[nH]1 [uridine],–,–,more than 90%
"Nc1ncnc2c1ncn2[C@@H]1O[C@H](COP(=O)(O)CP(=O)([O-])OP(=O)([O-])[O-])[C@@H](O)[C@H]1O.[Na+].[Na+].[Na+] [α,β-Methyleneadenosine 5′-triphosphate trisodium salt]",effective,effective,–
"Nc1ncnc2c1ncn2[C@@H]1O[C@H](COP(=O)(O)CP(=O)(O)OP(=O)(O)O)[C@@H](O)[C@H]1O [α,β-methylene ATP]",effective,effective,–
BzATP triethylammonium salt,effective,effective,–
diadenosine pentaphosphate,effective,effective,–
diuridine triphosphate,effective,effective,–
